In US5770688A, “Method and composition for the treatment of mammalian HIV infection” (GSF-Forschungszentrum fur Umwelt und Gesundheit GmbH, priority 1989, dated 1998):

What was measured:
non-infected cells = experiment: MTT toxicity/killing of non-infected cells (Biomek 1000); type: cell-based
Procedure: The KE37-1 (uninfected) and KE37-1/111β (infected) cell lines discussed below are commercially available from the Dr. Robert Gallows Laboratory of the NIH in the United States of America and grown in a medium of RPMI 1640 (GIBCO) and further supplemented with 10% fetal calf serum which contained approximately 100 units of penicillin, 100 μg streptomycin, and approximately 0.25 μg fungizone (Amphotericin B) per milliliter. The human mesenchymal cell lines LC5 and LC5-HIV, discussed below, are deposited with the Collection De L'Institut Pasteur of Paris, France on Mar. 9, 1989 and given the accession numbers I-842 and I-843, respectively. […]
In the present series of experiments HIV release was tested by a fully automated laboratory robot system and which is manufactured by Beckman Instruments as the Biomek 1000. […] The number of living cells are quantified by MTT, that is by a metabolic (dehydrogenase) test. […] The toxic effect is detected at the time of the experiment and not in a separate control experiment. Furthermore, the supernatant, and which contains released virus cells from the period of time which elapsed from the last wash, and which may vary from 24 hours to 7 days, is collected from the culture, and an aliquot is saved for virus quantification by employing antigen or viral enzyme reverse transcriptase (RT). […]

P24 = P24 production in melittin treated HIV infected cultures; type: cell-based
Text: This means, in essence, that the effect of melittin (Seq. ID NO:1) on the virus is to attack the virus before it is released from an infected cell although it is possible that a reduction in virus numbers may be possible during and immediately after the addition of melittin to a cell culture or otherwise. […] At this point in time, melittin is absent from the culture. […] This observation excludes any effect in the experiments to be explained by a direct effect of melittin on "cell free" virus, that is, virus released into the supernatant.
These characteristics appear to be due to the specific structure of the melittin amphiphilic helix. […] In this regard, treatment was at cultivation start, and measurement of infectivity was seven days post treatment. As was discussed earlier, maximum virus concentration in cultures of this type is not achieved for five days after cultivation. As should be understood and the conclusions which the inventors have drawn from same is that if the reduced viral infectivity seven days post treatment were only due to direct effects of melittin on the virus, then in that event, the melittin or an active fragment would have to be present as late as five days post treatment. […] Moreover, and if the reduction and supernatant infectivity was partly due to reduced virus production as opposed to incorrect virus assembly or destruction of newly synthesized virion, then, in that event, this should be reflected by reduced amounts of viral proteins within the cells and/or in their supernatants of the melittin treated cultures. To determine whether this hypothesis is correct the inventors chose the P24 marker as a marker for viral protein production. […] However, following fourteen hours of incubation with melittin, there is a marked reduction of P24 within the cells as well as in the supernatant (down to 60%).

Gly-Ile-Gly-Ala-Val-Leu-Lys-Val-Leu-Thr-Thr-Gly-Leu-Pro-Ala-Leu-Ile-Ser-Trp-Ile-Lys-Arg-Lys-Arg-Gln-Gln-Amide [melittin]
critical concentration at which all non-infected cells were killed (non-infected cells): 10 μg per ml
cellular vs supernatant P24 reduction (P24): cellular P24 seems to be reduced sooner and more strongly than supernatant P24
P24 within the cells as well as in the supernatant (P24; fourteen hours of incubation, down to, 840 min): 60%
reduction of cellular and supernatant P24 (P24; three hours of incubation): only a slight reduction
virus protein synthesis (P24 formation within the cell) (P24; totally infected (clone) cultures): virus protein synthesis is reduced
